Experimental data published in ChEMBL document CHEMBL4257456, “Molecular modeling study, synthesis and biological evaluation of combretastatin A-4 analogues as anticancer agents and tubulin inhibitors” (Medchemcomm, 2018).

Key:
[1] = system: A549; test: Antiproliferative activity against human A549 cells after 72 hrs by CCK-8 assay; assay type: functional, cell-based; details: A549, 72 h
[2] = system: MCF7; test: Antiproliferative activity against human MCF7 cells after 72 hrs by CCK-8 assay; assay type: functional, cell-based; details: MCF7, 72 h
[3] = system: MGC-803; test: Antiproliferative activity against human MGC803 cells after 72 hrs by CCK-8 assay; assay type: functional, cell-based; details: MGC-803, 72 h
[4] = Inhibition of pig brain tubulin polymerization by spectrophotometric analysis; parameters: species or system Sus scrofa
[5] = system: HepG2; test: Antiproliferative activity against human HepG2 cells after 72 hrs by CCK-8 assay; assay type: functional, cell-based; details: HepG2, 72 h
[6] = system: HCT-116; test: Antiproliferative activity against human HCT116 cells after 72 hrs by CCK-8 assay; assay type: functional, cell-based; details: HCT-116, 72 h
[7] = system: HeLa; test: Antiproliferative activity against human HeLa cells after 72 hrs by CCK-8 assay; assay type: functional, cell-based

Row | SMILES | IC50 [4] | IC50 [1] | IC50 [2] | IC50 [3] | IC50 [5] | IC50 [6] | IC50 [7]
1 | CCOc1ccc(-c2oc3cc(OC)ccc3c2C(=O)c2cc(OC)c(OC)c(OC)c2)cc1 | 0.86 µM | 1.37 µM | 0.91 µM | 9.97 µM | 1.31 µM | 12.6 µM | 8.99 µM
2 | COc1ccc(/C=C\c2cc(OC)c(OC)c(OC)c2)cc1O [COMBRETASTATIN A4] | 0.88 µM | 5.99 µM | 0.67 µM | 1.76 µM | 16 µM | 9 µM | 11.3 µM
3 | COc1ccc(/C=C\c2cc(OC)c(OC)c(OC)c2)cc1OP(=O)(O)O [FOSBRETABULIN DISODIUM] | 4.79 µM | 0.4 µM | 0.96 µM | 0.47 µM | 0.27 µM | 0.24 µM | 0.56 µM

Second part, led by results:

Row | IC50 [4] | SMILES | IC50 [1] | IC50 [2] | IC50 [3] | IC50 [5] | IC50 [6] | IC50 [7]
4 | > 200 µM | COc1ccc(-c2oc3cc(OC)c(F)cc3c2C(=O)c2cc(OC)c(OC)c(OC)c2)cc1 | 6.87 µM | 6.49 µM | 47.3 µM | 4.75 µM | 78.2 µM | 19.1 µM
5 | > 200 µM | CCOc1ccc(-c2[nH]c3cc(OC)ccc3c2C(=O)c2cc(OC)c(OC)c(OC)c2)cc1 |  |  |  |  |  | 
